Article PMC13075795, “A dual-threshold system relying on multiple c-di-GMP metabolic enzymes controls cell fate of a cyanobacterium” (PLOS Biology, 2026)

Columns and labels:
Alr3599 = target: T1, Alr3599 (Nostoc sp. PCC 7120 = FACHB-418, UniProt A0ACD7RVV5); experiment: HPLC diguanylate cyclase inhibition assay (GTP consumption); format: biochemical
T1 construct: full-length; pHTwinStrep vector, C-terminal twin Strep-tag kept; expressed in E. coli BL21(DE3); Strep-Tactin and SEC

CdgS = target: T2, CdgS (Nostoc sp. PCC 7120 = FACHB-418, UniProt A0ACD7RTW6); experiment: as above; format: biochemical
T2 construct: gene all2874; full-length; pHTwinStrep vector, C-terminal twin Strep-tag kept; expressed in E. coli BL21(DE3); Strep-Tactin and SEC
T2 sequence (A0ACD7RTW6 1-330): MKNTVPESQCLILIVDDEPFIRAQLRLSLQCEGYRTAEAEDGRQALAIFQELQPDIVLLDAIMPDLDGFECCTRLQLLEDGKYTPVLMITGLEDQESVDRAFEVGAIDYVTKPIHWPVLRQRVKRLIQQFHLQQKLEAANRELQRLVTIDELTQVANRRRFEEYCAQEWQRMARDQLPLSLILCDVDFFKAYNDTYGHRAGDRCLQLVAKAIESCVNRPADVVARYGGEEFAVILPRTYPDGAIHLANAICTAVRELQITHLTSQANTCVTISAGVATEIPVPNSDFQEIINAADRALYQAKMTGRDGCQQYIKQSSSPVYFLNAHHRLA

[1] = target: T3, Alr1219-ΔCT (All1219-ΔCT) (Nostoc sp. PCC 7120 = FACHB-418, UniProt A0ACD7RQN0); experiment: as above; format: biochemical
T3 construct: C-terminal twin Strep-tag kept; expressed in E. coli BL21(DE3)

[2] = substrate: Nc1nc2c(ncn2[C@@H]2O[C@H](COP(=O)(O)OP(=O)(O)OP(=O)(O)O)[C@@H](O)[C@H]2O)c(=O)[nH]1; experiment: HPLC diguanylate cyclase assay, Michaelis-Menten fit; format: biochemical, Nostoc sp. PCC 7120 = FACHB-418; conditions: 3.13-200 μM GTP, 1 μM protein, 10 min, 25 °C, 50 mM Tris-HCl pH 8.0, 0.2 M NaCl, 10 mM MgCl2

Ki (Alr3599) [µM]	Ki (CdgS) [nM]	Ki [1] [µM]	Molecule	Km [2] [µM]
16	2420	3.7	Nc1nc2c(ncn2[C@@H]2O[C@@H]3CO[P@](=O)(O)O[C@H]4[C@@H](O)[C@H](n5cnc6c(=O)[nH]c(N)nc65)O[C@@H]4CO[P@](=O)(O)O[C@H]3[C@H]2O)c(=O)[nH]1 [c-di-GMP]	
			Alr1219-ΔCT (All1219-ΔCT) (Nostoc sp. PCC 7120 = FACHB-418) (protein, C-terminal twin Strep-tag kept; expressed in E. coli BL21(DE3)) HMQEELKRSKEFLQQVIDTIADPIFVKNEQHQWIVLNKAYCRFIGYPESFLVEKSDVDFFPKHEADVFRQQDELVFETQRPQENEEEFTDAYGKTHLIATKRSLHKDAAGNFFLVGVIRDITQRKIMEEELKRTAAELFRSNNELKLKEDHLRYLAYHDALTGLPNRKYFAEQLYESINWAKDNNLSLGLLFIDLDGFKQVNDSLGHEMGDRLLVVIAQRLSNSLRASDTVARLGGDEFTVILQAIPNVQVAAKVAEKILANITEPIVLNGCTAKVSVSIGISIYPETSLDPDTLLKKADAAMYRAKHLGKNRFELADRVNTEF	20.3 ± 12.4
			Alr3599 (Nostoc sp. PCC 7120 = FACHB-418) (protein, full-length; pHTwinStrep vector, C-terminal twin Strep-tag kept; expressed in E. coli BL21(DE3); Strep-Tactin and SEC) MSGISPYSLSKKPPVILVADDDKTIRMLLREAMEKEGYRVVEVTDGKQCLDAYEAVKPDIVLLDAMMPVMDGFTCCKQLLQIARNNLITALANLDTDSGLGNTVISRLWERTPILMITSLNDAESVDRAFEAGATDYITKPIHWAVLRQRLRRLLQQAQVYKQLEAANMALQHLANVDGLTGLANRRRFDNYLNTQWINLVQEGAPLSLILCDIDYFKFYNDQYGHPTGDICLQKVGAVLSYKAQKHQDLVARYGGEEFAVVMPYTHAKGAIYVAHAIQTSVRDLQIAHDKSAVSQHITLSMGVATITPTWESSPSDLIAAADKALYKAKESGRNRICQWEDSQ	84.2 ± 30.1
			CdgS (Nostoc sp. PCC 7120 = FACHB-418) (protein, full-length; pHTwinStrep vector, C-terminal twin Strep-tag kept; expressed in E. coli BL21(DE3); Strep-Tactin and SEC) MKNTVPESQCLILIVDDEPFIRAQLRLSLQCEGYRTAEAEDGRQALAIFQELQPDIVLLDAIMPDLDGFECCTRLQLLEDGKYTPVLMITGLEDQESVDRAFEVGAIDYVTKPIHWPVLRQRVKRLIQQFHLQQKLEAANRELQRLVTIDELTQVANRRRFEEYCAQEWQRMARDQLPLSLILCDVDFFKAYNDTYGHRAGDRCLQLVAKAIESCVNRPADVVARYGGEEFAVILPRTYPDGAIHLANAICTAVRELQITHLTSQANTCVTISAGVATEIPVPNSDFQEIINAADRALYQAKMTGRDGCQQYIKQSSSPVYFLNAHHRLA	26.6 ± 3.5
